Tests used:
[1] = target: T1, His-PYR1 with GST-HAB1 (Arabidopsis thaliana, UniProt O49686); assay: in vitro reconstitution, radiometric kinase assay; assay type: biochemical; details: HAB1 in place of ABI1
T1 sequence (O49686 1-191): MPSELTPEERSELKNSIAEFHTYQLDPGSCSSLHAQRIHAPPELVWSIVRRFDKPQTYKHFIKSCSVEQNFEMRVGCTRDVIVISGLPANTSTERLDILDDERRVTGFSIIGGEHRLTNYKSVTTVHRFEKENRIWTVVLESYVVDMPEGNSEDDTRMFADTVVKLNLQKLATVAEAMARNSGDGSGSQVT
T1 sequence (Q9CAJ0 1-511 partner): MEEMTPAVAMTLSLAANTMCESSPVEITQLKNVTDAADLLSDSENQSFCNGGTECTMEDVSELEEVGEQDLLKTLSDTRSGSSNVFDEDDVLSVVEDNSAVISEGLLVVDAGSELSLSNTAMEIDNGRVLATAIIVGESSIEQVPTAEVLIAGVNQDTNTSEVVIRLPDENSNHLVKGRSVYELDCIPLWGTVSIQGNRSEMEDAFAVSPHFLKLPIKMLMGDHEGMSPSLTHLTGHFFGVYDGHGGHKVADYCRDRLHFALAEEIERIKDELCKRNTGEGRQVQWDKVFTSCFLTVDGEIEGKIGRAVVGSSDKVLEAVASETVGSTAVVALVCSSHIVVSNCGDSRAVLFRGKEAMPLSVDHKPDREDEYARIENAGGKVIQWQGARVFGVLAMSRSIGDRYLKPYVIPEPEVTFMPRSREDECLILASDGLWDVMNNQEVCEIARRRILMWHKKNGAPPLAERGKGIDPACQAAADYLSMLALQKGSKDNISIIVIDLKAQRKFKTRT

[2] = target: T2, His-PYR1 with GST-ABI1 (Arabidopsis thaliana, UniProt O49686); assay: in vitro reconstitution, radiometric kinase assay; assay type: biochemical
T2 sequence (O49686 1-191): T1 sequence (O49686 1-191)
T2 sequence (P49597 1-434 partner): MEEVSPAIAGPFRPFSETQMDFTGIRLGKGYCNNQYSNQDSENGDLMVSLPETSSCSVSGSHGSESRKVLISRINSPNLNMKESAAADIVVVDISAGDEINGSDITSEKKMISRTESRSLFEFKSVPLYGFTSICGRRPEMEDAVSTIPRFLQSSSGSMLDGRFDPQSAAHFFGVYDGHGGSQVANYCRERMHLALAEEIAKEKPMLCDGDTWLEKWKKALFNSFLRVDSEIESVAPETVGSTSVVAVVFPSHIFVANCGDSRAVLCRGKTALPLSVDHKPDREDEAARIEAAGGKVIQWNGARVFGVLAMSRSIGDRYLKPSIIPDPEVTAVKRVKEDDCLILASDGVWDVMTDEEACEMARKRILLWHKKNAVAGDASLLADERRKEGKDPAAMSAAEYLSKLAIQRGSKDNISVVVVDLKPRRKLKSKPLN

**Q.** Which results are given for `CC1=CC(=O)CC(C)(C)C1(O)/C=C/C(C)=C\C(=O)O` (stereo in doubt) [(+)-ABA]?
**A.** in vitro reconstitution, radiometric kinase assay [1]: reconstitution was also achieved when the PP2C protein HAB1 was used instead of ABI1; EC50 [2]: 800 nM
